Measured values as given in the NIST ThermoML archive (doi:10.1016/j.jct.2011.11.023).
± gives the expanded uncertainty stated by the source.

Assays:
[1] = Solid-liquid equilibrium temperature; conditions: 101.3 kPa, DSC
[2] = 298 K; 101.33 kPa; Crystal 2; X-ray diffraction
[3] = Molar enthalpy of transition or fusion; conditions: DSC

Question: With `O=C(O)c1cccnc1` [3-carboxylpyridine] as the molecule, how does the Solid-liquid equilibrium temperature ([1]; Crystal 1) read?
Answer: 507 ± 2 K

Question: What about the Solid-liquid equilibrium temperature ([1]; Crystal 2) of the same molecule?
Answer: 453.6 ± 0.3 K

Question: And the mass density [2]?
Answer: 1471 ± 2 kg/m3

Question: And the “Molar enthalpy of transition or fusion” value ([3]; Crystal 1)?
Answer: 6.62 ± 0.191 kcal/mol

Question: And the “Molar enthalpy of transition or fusion” value ([3]; Crystal 2)?
Answer: 0.308 ± 0.0311 kcal/mol
